# Data: ChEMBL document CHEMBL4673372, “1,2,3-triazole-thiazole hybrids: Synthesis, in vitro antimicrobial activity and antibiofilm studies” (Bioorg Med Chem Lett, 2021)
# Assays:
# [1] = Selectivity index, ratio of CC50 for human THP-1 cells to MIC for Staphylococcus aureus MTCC 96; assay type: toxicity
# [2] = Cytotoxicity against human THP-1 cells; assay type: cell-based
# THP-1 [3] = assay: Cytotoxicity against human THP-1 cells assessed as cell damage at 200 uM by LDH assay; assay type: cell-based; details: thp-1, 200 µM
# THP-1 [4] = assay: Cytotoxicity against human THP-1 cells assessed as reduction in cell viability at 200 uM by MTT assay; assay type: cell-based; details: thp-1, 200 µM
# Pseudomonas aeruginosa [5] = assay: Bactericidal activity against Pseudomonas aeruginosa MTCC 2453; assay type: functional
# Micrococcus luteus [6] = assay: Bactericidal activity against Micrococcus luteus MTCC 2470; assay type: functional
# Bacillus subtilis [7] = assay: Bactericidal activity against Bacillus subtilis MTCC 121; assay type: functional
# Pseudomonas aeruginosa [8] = assay: Antibacterial activity against Pseudomonas aeruginosa MTCC 2453 assessed as inhibition of bacterial growth by microtiter broth dilution method; assay type: functional
# Escherichia coli [9] = assay: Antibacterial activity against Escherichia coli MTCC 739 assessed as inhibition of bacterial growth by microtiter broth dilution method; assay type: functional
# Raoultella planticola [10] = assay: Antibacterial activity against Klebsiella planticola MTCC 530 assessed as inhibition of bacterial growth by microtiter broth dilution method; assay type: functional
# Micrococcus luteus [11] = assay: Antibacterial activity against Micrococcus luteus MTCC 2470 assessed as inhibition of bacterial growth by microtiter broth dilution method; assay type: functional
# Bacillus subtilis [12] = assay: Antibacterial activity against Bacillus subtilis MTCC 121 assessed as inhibition of bacterial growth by microtiter broth dilution method; assay type: functional
# Staphylococcus aureus [13] = assay: Antibacterial activity against Staphylococcus aureus MLS16 MTCC 2940 assessed as inhibition of bacterial growth by microtiter broth dilution method; assay type: functional
# Staphylococcus aureus [14] = assay: Antibacterial activity against Staphylococcus aureus MTCC 96 assessed as inhibition of bacterial growth by microtiter broth dilution method; assay type: functional
# Candida albicans [15] = assay: Inhibition of biofilm formation in Candida albicans MTCC 3017 incubated for 24 hrs by crystal violet staining based microtiter plate method; assay type: functional, organism-based
# Pseudomonas aeruginosa [16] = assay: Inhibition of biofilm formation in Pseudomonas aeruginosa MTCC 2453 incubated for 24 hrs by crystal violet staining based microtiter plate method; assay type: functional, organism-based
# Escherichia coli [17] = assay: Inhibition of biofilm formation in Escherichia coli MTCC 739 incubated for 24 hrs by crystal violet staining based microtiter plate method; assay type: functional, organism-based
# Raoultella planticola [18] = assay: Inhibition of biofilm formation in Klebsiella planticola MTCC 530 incubated for 24 hrs by crystal violet staining based microtiter plate method; assay type: functional, organism-based
# Micrococcus luteus [19] = assay: Inhibition of biofilm formation in Micrococcus luteus MTCC 2470 incubated for 24 hrs by crystal violet staining based microtiter plate method; assay type: functional, organism-based
# Bacillus subtilis [20] = assay: Inhibition of biofilm formation in Bacillus subtilis MTCC 121 incubated for 24 hrs by crystal violet staining based microtiter plate method; assay type: functional, organism-based
# Staphylococcus aureus [21] = assay: Inhibition of biofilm formation in Staphylococcus aureus MLS16 MTCC 2940 incubated for 24 hrs by crystal violet staining based microtiter plate method; assay type: functional, organism-based
# Staphylococcus aureus [22] = assay: Inhibition of biofilm formation in Staphylococcus aureus […] incubated for 24 hrs by crystal violet staining based microtiter plate method; assay type: functional, organism-based
# Staphylococcus aureus [23] = assay: Bactericidal activity against Staphylococcus aureus MTCC 96; assay type: functional
# Raoultella planticola [24] = assay: Bactericidal activity against Klebsiella planticola MTCC 530; assay type: functional
# Pichia sporocuriosa = assay: Antifungal activity against Issatchenkia hanoiensis MTCC 4755; assay type: functional
# Pichia kudriavzevii = assay: Antifungal activity against Candida krusei MTCC 3020; assay type: functional
# Nakaseomyces glabratus = assay: Antifungal activity against Candida glabrata MTCC 3019; assay type: functional
# [Candida] aaseri = Antifungal activity against Candida aaseri MTCC 1962; assay type: functional; details: Yamadazyma aaseri
# Candida parapsilosis = assay: Antifungal activity against Candida parapsilosis MTCC 1745; assay type: functional; details: Lodderomyces parapsilosis
# Candida albicans [25] = assay: Antifungal activity against Candida albicans MTCC 4748; assay type: functional
# Candida albicans [26] = assay: Antifungal activity against Candida albicans MTCC 3958; assay type: functional
# Candida albicans [27] = assay: Antifungal activity against Candida albicans MTCC 3018; assay type: functional
# Candida albicans [28] = assay: Antifungal activity against Candida albicans MTCC 1637; assay type: functional
# Candida albicans [29] = assay: Antifungal activity against Candida albicans MTCC 854; assay type: functional
# Candida albicans [30] = assay: Fungicidal activity against Candida albicans MTCC 183; assay type: functional
# Candida albicans [31] = assay: Antifungal activity against Candida albicans MTCC 227; assay type: functional
# Candida albicans [32] = assay: Antifungal activity against Candida albicans MTCC 183; assay type: functional
# Escherichia coli [33] = assay: Bactericidal activity against Escherichia coli MTCC 739; assay type: functional
# [34] = Bacillus subtilis, MTCC 121, 24 h, read-out: IC50
MIC (Pseudomonas aeruginosa [8]) [µM],MIC (Escherichia coli [9]) [µM],MIC (Micrococcus luteus [11]) [µM],MIC (Bacillus subtilis [12]) [µM],MIC (Staphylococcus aureus [13]) [µM],MIC (Staphylococcus aureus [14]) [µM],SMILES,selectivity ratio [1],CC50 [2] [µM],Activity (THP-1 [3]),Activity (THP-1 [4]),MBC (Bacillus subtilis [7]) [µM],MIC (Raoultella planticola [10]) [µM],IC50 (Candida albicans [15]),IC50 (Pseudomonas aeruginosa [16]),IC50 (Escherichia coli [17]),IC50 (Raoultella planticola [18]),IC50 (Micrococcus luteus [19]),IC50 (Staphylococcus aureus [21]),IC50 (Staphylococcus aureus [22]),MBC (Staphylococcus aureus [23]) [µM],also measured
27.7,> 223,13.8,13.8,> 223,> 223,COc1ccc(-n2cc(COc3ccc(/C=N/Nc4nc(-c5ccc(Br)cc5)cs4)cc3)nn2)cc1,0.16,35.6,Toxic,Toxic,55.5,> 223,–,–,–,–,–,–,–,–,MBC (Pseudomonas aeruginosa [5]): 111 µM; MBC (Micrococcus luteus [6]): 27.7 µM
> 223,> 223,> 223,> 223,> 223,> 223,COc1ccc(-n2cc(COc3ccc(/C=N/Nc4nc(-c5ccc(F)cc5)cs4)cc3)nn2)cc1,–,–,–,–,–,> 223,–,–,–,–,–,–,–,–,–
> 202,> 202,> 202,> 202,> 202,> 202,COc1ccc(-n2cc(COc3ccc(/C=N/Nc4nc(-c5cc6cc(Cl)cc(Cl)c6oc5=O)cs4)cc3)nn2)cc1,–,–,–,–,–,> 202,Not Active,Not Active,Not Active,Not Active,Not Active,Not Active,Not Active,–,IC50 (Bacillus subtilis [20]): Not Active
> 186,> 186,> 186,> 186,> 186,> 186,CCOc1cc(Br)cc2cc(-c3csc(N/N=C/c4ccc(OCc5cn(-c6ccc(OC)cc6)nn5)cc4)n3)c(=O)oc12,–,–,–,–,–,> 186,Not Active,Not Active,Not Active,Not Active,Not Active,Not Active,Not Active,–,IC50 (Bacillus subtilis [20]): Not Active
> 252,> 252,> 252,> 252,> 252,15.7,COc1ccc(-n2cc(COc3ccc(/C=N/Nc4nc(-c5ccc(C)cc5)cs4)cc3)nn2)cc1,2.57,40.3,Toxic,Toxic,–,> 252,–,–,–,–,–,–,–,31.4,–
14.7,> 237,14.7,14.7,> 237,14.7,COc1ccc(-n2cc(COc3ccc(/C=N/Nc4nc(-c5ccc([N+](=O)[O-])cc5)cs4)cc3)nn2)cc1,2.58,37.9,Toxic,Toxic,29.5,> 237,–,–,–,–,–,–,–,29.5,MBC (Pseudomonas aeruginosa [5]): 59.1 µM; MBC (Micrococcus luteus [6]): 29.5 µM
> 199,> 199,> 199,6.1,> 199,6.1,COc1ccc(-n2cc(COc3ccc(/C=N/Nc4nc(-c5cc6cccc(Br)c6oc5=O)cs4)cc3)nn2)cc1,–,–,–,–,12.3,6.1,Not Active,Not Active,Not Active,–,Not Active,Not Active,–,12.3,"IC50 (Raoultella planticola [18]; Klebsiella planticola, MTCC 530, 24 h, read-out: IC50): 42.3 µM; IC50 (Bacillus subtilis [20]; [34]): 35.4 µM; IC50 (Staphylococcus aureus [22]; Staphylococcus aureus, MTCC 92, 24 h, read-out: IC50): 32.6 µM; MBC (Raoultella planticola [24]): 12.3 µM"
> 224,> 224,> 224,13.9,> 224,13.9,COc1ccc(-n2cc(COc3ccc(/C=N/Nc4nc(-c5ccc(-c6ccccc6)cc5)cs4)cc3)nn2)cc1,2.58,35.8,Toxic,Toxic,27.9,> 224,–,–,–,–,–,–,–,27.9,–
> 259,> 259,> 259,> 259,> 259,> 259,COc1ccc(-n2cc(COc3ccc(/C=N/Nc4nc(-c5ccccc5)cs4)cc3)nn2)cc1,–,–,–,–,–,> 259,–,–,–,–,–,–,–,–,–
> 195,> 195,> 195,> 195,> 195,> 195,COc1ccc(-n2cc(COc3ccc(/C=N/Nc4nc(-c5cc6cc([N+](=O)[O-])cc([N+](=O)[O-])c6oc5=O)cs4)cc3)nn2)cc1,–,–,–,–,–,> 195,Not Active,Not Active,Not Active,Not Active,Not Active,Not Active,Not Active,–,IC50 (Bacillus subtilis [20]): Not Active; MIC (Pichia sporocuriosa): > 195 µM; MIC (Pichia kudriavzevii): > 195 µM; MIC (Nakaseomyces glabratus): > 195 µM; MIC ([Candida] aaseri): > 195 µM; MIC (Candida parapsilosis): > 195 µM; MIC (Candida albicans [25]): > 195 µM; MIC (Candida albicans [26]): > 195 µM; MIC (Candida albicans [27]): > 195 µM; MIC (Candida albicans [28]): > 195 µM; MIC (Candida albicans [29]): > 195 µM; MFC (Candida albicans [30]): 12.2 µM; MIC (Candida albicans [31]): > 195 µM; MFC (Candida albicans [32]): 12.2 µM; MIC (Candida albicans [32]): 6.1 µM
> 244,> 244,> 244,7.6,> 244,7.6,COc1ccc(-c2csc(N/N=C/c3ccc(OCc4cn(-c5ccc(OC)cc5)nn4)cc3)n2)cc1,5.13,39,Toxic,Toxic,30.4,> 244,–,–,–,–,–,–,–,30.4,–
> 242,> 242,> 242,> 242,> 242,15,COc1ccc(-n2cc(COc3ccc(/C=N/Nc4nc(-c5ccc(Cl)cc5)cs4)cc3)nn2)cc1,2.58,38.7,Toxic,Toxic,–,> 242,–,–,–,–,–,–,–,30.2,–
> 176,5.5,5.5,5.5,> 176,> 176,COc1ccc(-n2cc(COc3ccc(/C=N/Nc4nc(-c5cc6cc(Br)cc(Br)c6oc5=O)cs4)cc3)nn2)cc1,–,–,–,–,11,> 176,Not Active,–,Not Active,Not Active,–,Not Active,Not Active,–,"IC50 (Pseudomonas aeruginosa [16]; Pseudomonas aeruginosa, MTCC 2453, 24 h, read-out: IC50): 110 µM; IC50 (Micrococcus luteus [19]; Micrococcus luteus, MTCC 2470, 24 h, read-out: IC50): 45.1 µM; IC50 (Bacillus subtilis [20]; [34]): 42.6 µM; MBC (Escherichia coli [33]): 11 µM; MBC (Micrococcus luteus [6]): 11 µM"
> 210,> 210,> 210,> 210,> 210,> 210,CCOc1cccc2cc(-c3csc(N/N=C/c4ccc(OCc5cn(-c6ccc(OC)cc6)nn5)cc4)n3)c(=O)oc12,–,–,–,–,–,> 210,Not Active,Not Active,Not Active,Not Active,Not Active,Not Active,Not Active,–,IC50 (Bacillus subtilis [20]): Not Active
